# Earlier results in patent EP3045477B1, “Method for reducing the migration of photoinitiators and their degradation products in UV curable coatings” (IOT - Innovative Oberflächentechnologien GmbH, priority 2015, dated 2016).
# Settings: listed limit, Verordnung (EU) 10/2011
smiles,measurement,value
"Cc1cc(C(C)(C)C)c(O)c(C(C)(C)C)c1 [Butylhydroxy toluol, Butylhydroxytoluol]",spezifische Migrationslimit,3 mg/kg
